According to patent publication US11655239B2 (SHANGHAI INSTITUTE OF MATERIAL MEDICA, CHINESE ACADEMY OF …, priority 2019, dated 2023):

What was measured:
[1] = biological target: DDR2 (Homo sapiens (Human), UniProt Q16832); assay: DDR2 enzyme activity test (ELISA); type: biochemical; conditions: read-out: DDR2 IC50
Experimental: The optical rotation and the inhibitory activity against DDR2 enzyme of the compounds S11-A and S11-B obtained by the resolution in Example 12, and the chirally synthesized compounds S11-A′ and S11-B′ in Example 13 were tested (referred to the operation in Effect example 1), and the results are shown in Table 3 below:
Detection method: Enzyme-linked immunosorbent assay (ELISA)
Test receptor tyrosine kinase: DDR2
The kinase used in the experiment was obtained by our laboratory using the insect baculovirus expression system to express and purify the recombinant protein containing the protein kinase region; polyglutamic acid-tyrosine peptide segment [Poly(Glu, Tyr) 4:1] and sodium vanadate were purchased from Sigma; the anti-phosphorylated monoclonal antibody PY99 was purchased from Santa Cruz; horseradish peroxidase labeled goat anti-murine secondary antibody was purchased from Calbiochem; ATP and OPD were purchased from Sangon Biotech (Shanghai) Co., Ltd.; the remaining reagents were purchased from Sinopharm Chemical Reagent Co., Ltd. The reaction ELISA plate (#2592) was purchased from Corning. The full-wavelength microplate reader for experiment reading was a product of Molecular Device, model: SpectraMax 190; the experimental water was distilled water produced by Sinopharm Group.
The compound was centrifuged at 12,000 g for 5 min, and DMSO was added to prepare a 10^-2M stock solution, which was vortexed evenly, then sonicated for 10 min and stored at −40° C. for later use. During the test, the compound was diluted with DMSO from the stock solution to 100 times the test concentration (the DMSO concentration in the system was 1%).
1) Enzyme reaction substrate Poly(Glu, Tyr) 4:1 was diluted to 20 μg/mL with potassium-free PBS (10 mM sodium phosphate buffer, 150 mM NaCl, pH 7.2-7.4), and the microtiter plate was coated with 125 μL/well and placed at 37° C. for 12-16 hours of reaction. The liquid in the well was discard. The plate was washed three times with T-PBS (potassium-free PBS containing 0.1% Tween-20, 200 μL/well), 5 minutes each time. The ELISA plate was dried in an oven at 37° C. for 1 to 2 hours.
2) Reaction buffer (50 mM HEPES pH 7.4, 50 mM MgCl2, 0.5 mM MnCl2, 0.2 mM Na3VO4, 1 mM DTT) diluted ATP solution (49 μL) was added to each well, 1 μL of the compound to be tested was added to each well, and then 50 μL of DDR2 kinase domain recombinant protein diluted in the reaction buffer was added to start the reaction. Two control wells without ATP were set in each experiment. The plate placed on a shaker (100 rpm) at 37° C. for 1 hour of reaction. The liquid in the well was discarded and the plate was washed three times with T-PBS.
3) Antibody PY99 dilution solution (the antibody was diluted 1:500 with T-PBS containing BSA 5 mg/mL) was added at 100 μL/well, and shaken on a shaker at 37° C. for 0.5 hour of reaction. The liquid in the well was discarded and the plate was washed three times with T-PBS.
4) Horseradish peroxidase labeled goat anti-murine secondary antibody dilution solution (the antibody is diluted 1:2000 with T-PBS containing BSA 5 mg/ml) was added at 100 μL/well, and shaken on a shaker at 37° C. for 0.5 hour of reaction. The liquid in the well was discarded and the plate was washed three times with T-PBS.
5) 2 mg/ml of OPD color developing solution [diluted with 0.1 M citric acid-sodium citrate buffer (pH=5.4) containing 0.03% H2O2] was added at 100 μL/well and reacted for 1 to 10 minutes at 25° C. in the dark.
6) 2M H2SO4 was added at 50 μL/well to stop the reaction, and a tunable wavelength microplate reader VERSAmax was used for reading at a wavelength of 490 nm.
The IC50 value was obtained by four-parameter regression using the software that came with the microplate reader.

[2] = system: mouse model of BLM-induced lung injury; assay: Total number of cells and protein concentration in BALF; type: in vivo; conditions: mice; 30, 60, 90 mg/kg oral qd
Experimental: 1. The determination of the total number of cells in BALF. The collected BALF was centrifuged at 1000 rpm at 4° C. for 10 minutes, and 25× Cocktail was added to the supernatant and stored at −80° C. for protein concentration detection and subsequent cytokine determination. The cell pellet was resuspend in 50 μL of saline. The total number of cells in BALF was determined with a cell counting instrument.
2. Determination of protein concentration. In the experiment, the BCA protein concentration determination kit (Beyotime) was used to determine the concentration of total protein in BALF. The experimental steps are as follows:
a. 0.8 ml protein standard formulation solution was added to a tube of protein standard (20 mg BSA), dissolved and mixed thoroughly to prepare a protein standard solution at 25 mg/ml. After preparation, the protein standard solution can be used immediately and stored at −20° C.
b. An appropriate amount of 25 mg/ml of protein standard solution was taken and diluted to the target concentration of 0.5 mg/ml. Note that the protein sample and the standard should be diluted with the same solution, or the standard can be diluted with 0.9% NaCl or PBS. […]
d. The absorbance in the wavelength range of 540-595 nm was measured or a microplate reader was used to measure A562.
e. The protein concentration in the sample was calculated according to the sample volume used and standard curve.

Sequence of DDR2 (Q16832 563-849): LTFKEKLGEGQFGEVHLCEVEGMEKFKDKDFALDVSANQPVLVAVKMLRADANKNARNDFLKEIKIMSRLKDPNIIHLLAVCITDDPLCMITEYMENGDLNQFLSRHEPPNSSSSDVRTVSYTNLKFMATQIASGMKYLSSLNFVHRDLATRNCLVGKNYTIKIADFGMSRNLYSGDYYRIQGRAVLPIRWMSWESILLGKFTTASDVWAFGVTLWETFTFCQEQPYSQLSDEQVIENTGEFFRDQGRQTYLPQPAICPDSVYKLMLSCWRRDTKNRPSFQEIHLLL

O=C(Nc1cccc(C(F)(F)F)c1)c1ccc(C2CC2)c(-c2ccc3nc(Nc4cnn(C5CC5)c4)ncc3c2)c1 [Compound S15, 4-cyclopropyl-3-(2-((1-cyclopropyl-1H-pyrazol-4-yl)amino)quinazolin-6-yl)-N-(3-(trifluoromethyl)phenyl)benzamide]
IC50 [1]: 6.1 ± 0.5 nM | protein concentration in BALF [2]: reduce the number of inflammatory cells and the concentration of related proteins in a dose-dependent manner | total number of inflammatory cells in BALF [2]: reduce the number of inflammatory cells and the concentration of related proteins in a dose-dependent manner
